Source: US9708314B2, “Heterocyclic amide compound” (NISSAN CHEMICAL INDUSTRIES, LTD., priority 2013, dated 2017)

Legend:
Assay type in all cases: in vivo
[1] = tested on: directly sowed Oryza sativa; experiment: Test Example 3: effect on crop by application to foliage (Wagner pot, water depth 0.1-0.5 cm); settings: Nineteenth Table; application to foliage; application herbicide amount 320 g/ha
Procedure, shortened: (§1)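 Post-emergence foliar application at a stated g/ha rate to plants grown 14 days from seed in alluvial soil, greenhouse 25–30 °C. Visual score after 3 weeks: 0 (≤5% effect) through 5 (≥90%).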

[2] = tested on: Echinochloa crus-galli var. crus-galli; experiment: Test Example 3: herbicidal effect by application to foliage (Wagner pot, water depth 0.1-0.5 cm); settings: Nineteenth Table; application to foliage; application herbicide amount 320 g/ha
Procedure, shortened: as §1

Leptochloa chinensis = experiment: as above; settings: Nineteenth Table; application to foliage; application herbicide amount 320 g/ha
Procedure, shortened: as §1

Cyperus difformis = experiment: as above; settings: Nineteenth Table; application to foliage; application herbicide amount 320 g/ha
Procedure, shortened: as §1

[3] = tested on: Echinochloa crus-galli var. crus-galli; experiment: Test Example 4: herbicidal effect by application to foliage (diluvial soil, plastic box); settings: foliage application, 320 g/ha
Procedure, shortened: (§2)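 Read-out is a 0–5 visual grade of herbicidal ratio (5: ≥90%, almost withered; 0: ≤5%) taken three weeks after treatment. Compound was applied as a diluted emulsion to stem and leaf parts of 14-day greenhouse-grown plants (25° C. to 30° C.) at rates expressed as g/ha.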

Lolium multiflorum Lam. = experiment: as above; settings: foliage application, 320 g/ha
Procedure, shortened: as §2

Stellaria media = experiment: as above; settings: foliage application, 320 g/ha
Procedure, shortened: as §2

Veronica persica = experiment: as above; settings: foliage application, 320 g/ha
Procedure, shortened: as §2

Chenopodium album = experiment: as above; settings: foliage application, 320 g/ha
Procedure, shortened: as §2

Abutilon theophrasti = experiment: as above; settings: foliage application, 320 g/ha
Procedure, shortened: as §2

Apera spica-venti. = experiment: as above; settings: foliage application, 320 g/ha
Procedure, shortened: as §2

Galium spurium = experiment: as above; settings: foliage application, 320 g/ha
Procedure, shortened: as §2

Digitaria ciliaris = experiment: as above; settings: foliage application, 320 g/ha
Procedure, shortened: as §2

Alopecurus myosuroides = experiment: as above; settings: foliage application, 320 g/ha
Procedure, shortened: as §2

Avena fatua = experiment: as above; settings: foliage application, 320 g/ha
Procedure, shortened: as §2

Amaranthus retroflexus = experiment: as above; settings: foliage application, 320 g/ha
Procedure, shortened: as §2

Setaria viridis = experiment: as above; settings: foliage application, 320 g/ha
Procedure, shortened: as §2

CSCCc1nnc2c(C(=O)Nc3nnnn3C)ccc(C(F)(F)F)n12 [2-057]
b (effect on crop grade) [1]: 5 (Herbicidal ratio of 90% or more (almost completely withered)) | H (herbicidal effect grade) [2]: 5 (Herbicidal ratio of 90% or more (almost completely withered)) | D (herbicidal effect grade) (Leptochloa chinensis): 5 (Herbicidal ratio of 90% or more (almost completely withered)) | E (herbicidal effect grade) (Cyperus difformis): 5 (Herbicidal ratio of 90% or more (almost completely withered)) | H (Echinochloa crus-galli var. crus-galli) herbicidal effect grade [3]: 5 (Herbicidal ratio of 90% or more (almost completely withered)) | K (Lolium multiflorum Lam.) herbicidal effect grade (Lolium multiflorum Lam.): 4 (Herbicidal ratio of 70% or more and less than 90%) | P (Stellaria media) herbicidal effect grade (Stellaria media): 5 (Herbicidal ratio of 90% or more (almost completely withered)) | R (Veronica persica) herbicidal effect grade (Veronica persica): 5 (Herbicidal ratio of 90% or more (almost completely withered)) | O (Chenopodium album) herbicidal effect grade (Chenopodium album): 5 (Herbicidal ratio of 90% or more (almost completely withered)) | M (Abutilon theophrasti) herbicidal effect grade (Abutilon theophrasti): 5 (Herbicidal ratio of 90% or more (almost completely withered)) | L (Apera spica-venti.) herbicidal effect grade (Apera spica-venti.): 4 (Herbicidal ratio of 70% or more and less than 90%) | Q (Galium spurium) herbicidal effect grade (Galium spurium): 4 (Herbicidal ratio of 70% or more and less than 90%) | F (Digitaria ciliaris) herbicidal effect grade (Digitaria ciliaris): 5 (Herbicidal ratio of 90% or more (almost completely withered)) | J (Alopecurus myosuroides) herbicidal effect grade (Alopecurus myosuroides): 4 (Herbicidal ratio of 70% or more and less than 90%) | I (Avena fatua) herbicidal effect grade (Avena fatua): 4 (Herbicidal ratio of 70% or more and less than 90%) | N (Amaranthus retroflexus) herbicidal effect grade (Amaranthus retroflexus): 5 (Herbicidal ratio of 90% or more (almost completely withered)) | G (Setaria viridis) herbicidal effect grade (Setaria viridis): 5 (Herbicidal ratio of 90% or more (almost completely withered))

Cn1nnnc1NC(=O)c1ccc(C(F)(F)F)n2c(CC[S+](C)[O-])nnc12 (stereo not shown) [2-058]
b (effect on crop grade) [1]: 5 (Herbicidal ratio of 90% or more (almost completely withered)) | H (herbicidal effect grade) [2]: 5 (Herbicidal ratio of 90% or more (almost completely withered)) | D (herbicidal effect grade) (Leptochloa chinensis): 5 (Herbicidal ratio of 90% or more (almost completely withered)) | E (herbicidal effect grade) (Cyperus difformis): 5 (Herbicidal ratio of 90% or more (almost completely withered)) | H (Echinochloa crus-galli var. crus-galli) herbicidal effect grade [3]: 5 (Herbicidal ratio of 90% or more (almost completely withered)) | K (Lolium multiflorum Lam.) herbicidal effect grade (Lolium multiflorum Lam.): 4 (Herbicidal ratio of 70% or more and less than 90%) | P (Stellaria media) herbicidal effect grade (Stellaria media): 5 (Herbicidal ratio of 90% or more (almost completely withered)) | R (Veronica persica) herbicidal effect grade (Veronica persica): 5 (Herbicidal ratio of 90% or more (almost completely withered)) | O (Chenopodium album) herbicidal effect grade (Chenopodium album): 5 (Herbicidal ratio of 90% or more (almost completely withered)) | M (Abutilon theophrasti) herbicidal effect grade (Abutilon theophrasti): 5 (Herbicidal ratio of 90% or more (almost completely withered)) | L (Apera spica-venti.) herbicidal effect grade (Apera spica-venti.): 4 (Herbicidal ratio of 70% or more and less than 90%) | Q (Galium spurium) herbicidal effect grade (Galium spurium): 5 (Herbicidal ratio of 90% or more (almost completely withered)) | F (Digitaria ciliaris) herbicidal effect grade (Digitaria ciliaris): 5 (Herbicidal ratio of 90% or more (almost completely withered)) | J (Alopecurus myosuroides) herbicidal effect grade (Alopecurus myosuroides): 4 (Herbicidal ratio of 70% or more and less than 90%) | I (Avena fatua) herbicidal effect grade (Avena fatua): 5 (Herbicidal ratio of 90% or more (almost completely withered)) | N (Amaranthus retroflexus) herbicidal effect grade (Amaranthus retroflexus): 5 (Herbicidal ratio of 90% or more (almost completely withered)) | G (Setaria viridis) herbicidal effect grade (Setaria viridis): 5 (Herbicidal ratio of 90% or more (almost completely withered))

Cn1nnnc1NC(=O)c1ccc(C(F)(F)F)n2c(CCS(C)(=O)=O)nnc12 [2-059]
b (effect on crop grade) [1]: 5 (Herbicidal ratio of 90% or more (almost completely withered)) | H (herbicidal effect grade) [2]: 5 (Herbicidal ratio of 90% or more (almost completely withered)) | D (herbicidal effect grade) (Leptochloa chinensis): 5 (Herbicidal ratio of 90% or more (almost completely withered)) | E (herbicidal effect grade) (Cyperus difformis): 5 (Herbicidal ratio of 90% or more (almost completely withered)) | H (Echinochloa crus-galli var. crus-galli) herbicidal effect grade [3]: 5 (Herbicidal ratio of 90% or more (almost completely withered)) | K (Lolium multiflorum Lam.) herbicidal effect grade (Lolium multiflorum Lam.): 4 (Herbicidal ratio of 70% or more and less than 90%) | P (Stellaria media) herbicidal effect grade (Stellaria media): 5 (Herbicidal ratio of 90% or more (almost completely withered)) | R (Veronica persica) herbicidal effect grade (Veronica persica): 5 (Herbicidal ratio of 90% or more (almost completely withered)) | O (Chenopodium album) herbicidal effect grade (Chenopodium album): 5 (Herbicidal ratio of 90% or more (almost completely withered)) | M (Abutilon theophrasti) herbicidal effect grade (Abutilon theophrasti): 5 (Herbicidal ratio of 90% or more (almost completely withered)) | L (Apera spica-venti.) herbicidal effect grade (Apera spica-venti.): 4 (Herbicidal ratio of 70% or more and less than 90%) | Q (Galium spurium) herbicidal effect grade (Galium spurium): 5 (Herbicidal ratio of 90% or more (almost completely withered)) | F (Digitaria ciliaris) herbicidal effect grade (Digitaria ciliaris): 5 (Herbicidal ratio of 90% or more (almost completely withered)) | J (Alopecurus myosuroides) herbicidal effect grade (Alopecurus myosuroides): 4 (Herbicidal ratio of 70% or more and less than 90%) | I (Avena fatua) herbicidal effect grade (Avena fatua): 4 (Herbicidal ratio of 70% or more and less than 90%) | N (Amaranthus retroflexus) herbicidal effect grade (Amaranthus retroflexus): 5 (Herbicidal ratio of 90% or more (almost completely withered)) | G (Setaria viridis) herbicidal effect grade (Setaria viridis): 5 (Herbicidal ratio of 90% or more (almost completely withered))

Cn1nnnc1NC(=O)c1ccc(C(F)(F)F)n2c(-c3ccc(Cl)nc3)nnc12 [2-060]
b (effect on crop grade) [1]: 5 (Herbicidal ratio of 90% or more (almost completely withered)) | H (herbicidal effect grade) [2]: 5 (Herbicidal ratio of 90% or more (almost completely withered)) | D (herbicidal effect grade) (Leptochloa chinensis): 5 (Herbicidal ratio of 90% or more (almost completely withered)) | E (herbicidal effect grade) (Cyperus difformis): 5 (Herbicidal ratio of 90% or more (almost completely withered)) | H (Echinochloa crus-galli var. crus-galli) herbicidal effect grade [3]: 5 (Herbicidal ratio of 90% or more (almost completely withered)) | K (Lolium multiflorum Lam.) herbicidal effect grade (Lolium multiflorum Lam.): 3 (Herbicidal ratio of 40% or more and less than 70%) | P (Stellaria media) herbicidal effect grade (Stellaria media): 5 (Herbicidal ratio of 90% or more (almost completely withered)) | R (Veronica persica) herbicidal effect grade (Veronica persica): 5 (Herbicidal ratio of 90% or more (almost completely withered)) | O (Chenopodium album) herbicidal effect grade (Chenopodium album): 5 (Herbicidal ratio of 90% or more (almost completely withered)) | M (Abutilon theophrasti) herbicidal effect grade (Abutilon theophrasti): 5 (Herbicidal ratio of 90% or more (almost completely withered)) | L (Apera spica-venti.) herbicidal effect grade (Apera spica-venti.): 4 (Herbicidal ratio of 70% or more and less than 90%) | Q (Galium spurium) herbicidal effect grade (Galium spurium): 4 (Herbicidal ratio of 70% or more and less than 90%) | F (Digitaria ciliaris) herbicidal effect grade (Digitaria ciliaris): 5 (Herbicidal ratio of 90% or more (almost completely withered)) | J (Alopecurus myosuroides) herbicidal effect grade (Alopecurus myosuroides): 3 (Herbicidal ratio of 40% or more and less than 70%) | I (Avena fatua) herbicidal effect grade (Avena fatua): 4 (Herbicidal ratio of 70% or more and less than 90%) | N (Amaranthus retroflexus) herbicidal effect grade (Amaranthus retroflexus): 5 (Herbicidal ratio of 90% or more (almost completely withered)) | G (Setaria viridis) herbicidal effect grade (Setaria viridis): 5 (Herbicidal ratio of 90% or more (almost completely withered))

Cn1nnnc1NC(=O)c1ccc(C(F)(F)F)n2c(-c3cccs3)nnc12 [2-061]
b (effect on crop grade) [1]: 5 (Herbicidal ratio of 90% or more (almost completely withered)) | H (herbicidal effect grade) [2]: 5 (Herbicidal ratio of 90% or more (almost completely withered)) | D (herbicidal effect grade) (Leptochloa chinensis): 5 (Herbicidal ratio of 90% or more (almost completely withered)) | E (herbicidal effect grade) (Cyperus difformis): 5 (Herbicidal ratio of 90% or more (almost completely withered)) | H (Echinochloa crus-galli var. crus-galli) herbicidal effect grade [3]: 5 (Herbicidal ratio of 90% or more (almost completely withered)) | K (Lolium multiflorum Lam.) herbicidal effect grade (Lolium multiflorum Lam.): 4 (Herbicidal ratio of 70% or more and less than 90%) | P (Stellaria media) herbicidal effect grade (Stellaria media): 5 (Herbicidal ratio of 90% or more (almost completely withered)) | R (Veronica persica) herbicidal effect grade (Veronica persica): 5 (Herbicidal ratio of 90% or more (almost completely withered)) | O (Chenopodium album) herbicidal effect grade (Chenopodium album): 5 (Herbicidal ratio of 90% or more (almost completely withered)) | M (Abutilon theophrasti) herbicidal effect grade (Abutilon theophrasti): 4 (Herbicidal ratio of 70% or more and less than 90%) | L (Apera spica-venti.) herbicidal effect grade (Apera spica-venti.): 3 (Herbicidal ratio of 40% or more and less than 70%) | Q (Galium spurium) herbicidal effect grade (Galium spurium): 3 (Herbicidal ratio of 40% or more and less than 70%) | F (Digitaria ciliaris) herbicidal effect grade (Digitaria ciliaris): 5 (Herbicidal ratio of 90% or more (almost completely withered)) | J (Alopecurus myosuroides) herbicidal effect grade (Alopecurus myosuroides): 3 (Herbicidal ratio of 40% or more and less than 70%) | I (Avena fatua) herbicidal effect grade (Avena fatua): 4 (Herbicidal ratio of 70% or more and less than 90%) | N (Amaranthus retroflexus) herbicidal effect grade (Amaranthus retroflexus): 5 (Herbicidal ratio of 90% or more (almost completely withered)) | G (Setaria viridis) herbicidal effect grade (Setaria viridis): 5 (Herbicidal ratio of 90% or more (almost completely withered))
